Consider seven compounds from patent US8952163B2, “Substituted hydroxamic acids and uses thereof” (Millennium Pharmaceuticals, Inc., priority 2010, dated 2015).

The structures appear in SMILES notation.

This assay concerns the target T1, purified human HDAC6 (Homo sapiens, UniProt Q9UBN7).
T1 construct: purchased BPS Bioscience 5006
T1 sequence (Q9UBN7 1-1215): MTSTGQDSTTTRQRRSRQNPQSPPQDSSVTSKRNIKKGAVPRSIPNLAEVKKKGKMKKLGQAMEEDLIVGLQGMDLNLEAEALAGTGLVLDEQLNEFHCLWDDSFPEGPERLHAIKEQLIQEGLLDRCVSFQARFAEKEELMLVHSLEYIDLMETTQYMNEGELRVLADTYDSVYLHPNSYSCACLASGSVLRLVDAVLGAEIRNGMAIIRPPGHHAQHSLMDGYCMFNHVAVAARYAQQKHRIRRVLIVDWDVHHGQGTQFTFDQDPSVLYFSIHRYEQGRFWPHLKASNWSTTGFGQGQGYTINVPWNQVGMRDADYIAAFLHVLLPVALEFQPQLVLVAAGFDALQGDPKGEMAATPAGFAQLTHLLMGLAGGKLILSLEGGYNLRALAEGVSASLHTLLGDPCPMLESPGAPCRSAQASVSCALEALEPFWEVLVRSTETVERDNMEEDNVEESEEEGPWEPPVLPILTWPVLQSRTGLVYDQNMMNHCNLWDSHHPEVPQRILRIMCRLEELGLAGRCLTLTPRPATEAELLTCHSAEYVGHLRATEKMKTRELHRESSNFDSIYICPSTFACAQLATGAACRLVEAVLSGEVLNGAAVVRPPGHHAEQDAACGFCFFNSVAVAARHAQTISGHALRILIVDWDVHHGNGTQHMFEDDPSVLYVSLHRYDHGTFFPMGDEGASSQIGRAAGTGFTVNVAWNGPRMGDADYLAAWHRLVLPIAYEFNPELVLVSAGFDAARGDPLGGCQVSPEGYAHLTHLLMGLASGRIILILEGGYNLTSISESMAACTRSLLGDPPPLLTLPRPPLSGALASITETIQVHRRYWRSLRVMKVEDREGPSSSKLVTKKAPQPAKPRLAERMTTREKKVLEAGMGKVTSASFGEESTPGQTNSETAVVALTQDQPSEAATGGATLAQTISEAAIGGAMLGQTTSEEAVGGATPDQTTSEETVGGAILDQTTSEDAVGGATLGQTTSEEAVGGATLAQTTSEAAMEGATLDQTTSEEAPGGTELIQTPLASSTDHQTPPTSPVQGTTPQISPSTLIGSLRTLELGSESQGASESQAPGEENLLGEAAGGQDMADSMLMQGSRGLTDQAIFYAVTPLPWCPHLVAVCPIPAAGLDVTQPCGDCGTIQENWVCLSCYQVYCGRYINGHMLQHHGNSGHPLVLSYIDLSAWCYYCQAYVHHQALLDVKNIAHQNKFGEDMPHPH
In words: HDAC6 Enzyme Assay. The class given is biochemical. To be noted: test compound at 1.235 μM; substrate Ac-Arg-Gly-Lys(Ac)-AMC, 1 hour at 30° C.; read-out: Percent Inhibition at 1.235 μM. As to the method:
To measure the inhibition of HDAC6 activity, purified human HDAC6 (BPS Bioscience; Cat. No. 5006) is incubated with substrate Ac-Arg-Gly-Lys(Ac)-AMC peptide (Bachem Biosciences; Cat. No. I-1925) for 1 hour at 30° C. in the presence of test compounds or vehicle DMSO control. The reaction is stopped with the HDAC inhibitor trichostatin A (Sigma; Cat. No. T8552) and the amount of Arg-Gly-Lys-AMC generated is quantitated by digestion with trypsin (Sigma; Cat. No. T1426) and subsequent measurement of the amount of AMC released using a fluorescent plate reader (Pherastar, BMG Technologies) set at Ex 340 nm and Em 460 nm. Concentration response curves are generated by calculating the fluorescence increase in test compound-treated samples relative to DMSO-treated controls, and percentage inhibition values at a single concentration or enzyme inhibition (IC50) values are determined from those curves. One skilled in the art will appreciate that the values generated either as percentage inhibition at a single concentration or IC50 values are subject to experimental variation.
As a reminder, the inhibition is the change of the read-out against control, counted positive when it falls. `O=C(NO)c1ccc2c(n1)CCN(C(=O)c1cc3ccccc3o1)C2` [Compound I-14, 6-(1-benzofuran-2-ylcarbonyl)-N-hydroxy-5,6,7,8-tetrahydro-1,6-naphthyridine-2-carboxamide]: the inhibition at 1.235 µM is 89.9%.

On to `Cc1nc(C(=O)N2CCc3ncc(C(=O)NO)cc3C2)cs1` [Compound I-1, N-hydroxy-6-[(2-methyl-1,3-thiazol-4-yl)carbonyl]-5,6,7,8-tetrahydro-1,6-naphthyridine-3-carboxamide], for which the inhibition at 1.235 µM stood at 87.8%. Turning to `O=C(NO)c1cnc2c(c1)CN(C(=O)C13CC4CC(CC(C4)C1)C3)CC2` [Compound I-31, 6-[1-adamantylcarbonyl]-N-hydroxy-5,6,7,8-tetrahydro-1,6-naphthyridine-3-carboxamide], the inhibition at 1.235 µM was found to be 93.8%. In the case of `CC(=O)N1CCc2cc(C(=O)NO)cnc2C1` [Compound I-21, 7-acetyl-N-hydroxy-5,6,7,8-tetrahydro-1,7-naphthyridine-3-carboxamide] it was 73.9%.

As for `Cc1nc(-c2ccccn2)sc1C(=O)N1CCc2nc(C(=O)NO)ccc2C1` [Compound I-6, N-hydroxy-6-[(4-methyl-2-pyridin-2-yl-1,3-thiazol-5-yl)carbonyl]-5,6,7,8-tetrahydro-1,6-naphthyridine-2-carboxamide], the inhibition at 1.235 µM is 81.4%.

Turning to `O=C(NO)c1ccc2c(n1)CCN(S(=O)(=O)c1ccc(C(F)(F)F)cc1)C2` [Compound I-59, N-hydroxy-6-{[4-(trifluoromethyl)phenyl]sulfonyl}-5,6,7,8-tetrahydro-1,6-naphthyridine-2-carboxamide], the inhibition at 1.235 µM came out at 67.4%. As to `O=C(NO)c1ccc2c(n1)CCN(C(=O)Nc1ccccc1-c1ccccc1)C2` [Compound I-34, N^6-biphenyl-2-yl-N^2-hydroxy-7,8-dihydro-1,6-naphthyridine-2,6(5H)-dicarboxamide], the inhibition at 1.235 µM was found to be 48.2%.
